These results are taken from PubChem BioAssay (NCI).

Some test systems named below: OVCAR-8 ovarian; HCC-2998 colon; HT29 colon; CAKI-1 renal; ACHN renal; UACC-257 melanoma; MDA-N; TK-10 renal; KM12 colon.
Holding throughout (test): NCI anticancer screen, dose series, 48 h

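Protocol summary: plate cells (96-well), add compound at 5 concentrations, incubate 48 h, interpolate endpoints linearly. TGI marks complete inhibition of growth.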

Turning to `CC1=C(C#N)c2nc3ccccc3n2C(=O)C1(C)CCO` (stereo not given), the TGI in the assay on OVCAR-8 ovarian, in the assay on HCC-2998 colon, in the assay with HT29 colon, in the assay with CAKI-1 renal, in the assay with ACHN renal and with UACC-257 melanoma was > 100 µM each time. Further, the TGI in the assay with MDA-N and in the assay on TK-10 renal was > 100 µM each time.

`O=C(CN1C(=O)CC(c2ccccc2)(c2ccccc2)C1=O)N1CCN(CCO)CC1`: the TGI in the assay with OVCAR-8 ovarian, in the assay with HCC-2998 colon, in the assay with KM12 colon, in the assay with HT29 colon, with CAKI-1 renal and in the assay with ACHN renal was > 100 µM in each case. Also, the TGI in the assay on UACC-257 melanoma and in the assay on TK-10 renal was > 100 µM throughout.

On to `Cc1cc(C)nc(NC(=S)Nc2ccc([N+](=O)[O-])cc2)c1`, for which the TGI in the assay on OVCAR-8 ovarian, with HCC-2998 colon, with KM12 colon, in the assay with HT29 colon, in the assay with CAKI-1 renal and in the assay on ACHN renal was > 100 µM each time. In addition, the TGI in the assay on UACC-257 melanoma and in the assay with TK-10 renal was > 100 µM throughout.

Take `C=C(C)[C@H]1C2=CC(C(=O)OC)=C(C[C@H](C(=C)C)[C@@H](O)[C@@H](O)C3=C[C@H]1OC3=O)O2`: the TGI in the assay with OVCAR-8 ovarian, with KM12 colon, in the assay with HT29 colon, in the assay on CAKI-1 renal, with ACHN renal and in the assay with UACC-257 melanoma was > 100 µM each time. The TGI in the assay with MDA-N and in the assay on TK-10 renal was > 100 µM each time.

As to `c1ccc(C(C(=Nc2ccc(Cc3ccc(N=C(C(c4ccccc4)c4ccccc4)N4CC4)cc3)cc2)N2CC2)c2ccccc2)cc1`, the TGI in the assay with OVCAR-8 ovarian came to 22.5 µM; in the assay on HCC-2998 colon it was 23.6 µM; with KM12 colon it was 24.5 µM; in the assay on HT29 colon, 15.9 µM; in the assay with CAKI-1 renal, 24.1 µM; with ACHN renal, 21.3 µM. The figures for the TGI in the assay on UACC-257 melanoma and with TK-10 renal were 25.6 µM and 34.5 µM, respectively.

Regarding `CN1CCN(Cc2cc3c(nn2)-c2ccccc2C3=O)CC1`, the TGI in the assay with OVCAR-8 ovarian is > 100 µM; in the assay on KM12 colon, > 100 µM; with HT29 colon, > 100 µM; in the assay with CAKI-1 renal, > 100 µM; with ACHN renal, 62.4 µM; in the assay with UACC-257 melanoma, 37.1 µM. Further, the TGI in the assay on MDA-N is 52.3 µM; with TK-10 renal, > 100 µM.

In the case of `CC(C)C1=CC23CCC4C(C)(C(=O)O)CCCC4(C)C2CC1C1C(=O)N(CCCCCCN2C(=O)C4C5CC6C7(C)CCCC(C)(C(=O)O)C7CCC6(C=C5C(C)C)C4C2=O)C(=O)C13` (stereo not given), the TGI in the assay on OVCAR-8 ovarian was 24.9 µM; in the assay with HCC-2998 colon, 27.1 µM; in the assay on KM12 colon, 23.9 µM; in the assay on HT29 colon, 13.8 µM; with ACHN renal, 22.8 µM; in the assay on MDA-N, 28.4 µM. The compound further returned a TGI in the assay on TK-10 renal of 31 µM.

Regarding `O=C(CNc1ccc(Cl)cc1Cl)Nn1c(-c2ccccc2)nc2ccccc2c1=O`, the TGI was > 100 µM in the assay on OVCAR-8 ovarian; 31.8 µM with HCC-2998 colon; 37.6 µM with HT29 colon; 37.3 µM with ACHN renal; 48.6 µM in the assay with UACC-257 melanoma; 34.5 µM with MDA-N. Moreover, in the assay on TK-10 renal, the TGI was 36.1 µM.

Take `CCOC(=O)/C(C(C)=O)=C(\OC(C)=O)c1ccncc1C(=O)O`: the TGI in the assay on OVCAR-8 ovarian, in the assay on HCC-2998 colon, with KM12 colon, in the assay on HT29 colon, with CAKI-1 renal and in the assay on ACHN renal was > 100 µM each time. Besides, the TGI in the assay with UACC-257 melanoma and with MDA-N was > 100 µM throughout.

Turning to `CCOC(=O)CC/C(=N/Nc1ccc(Cl)cc1[N+](=O)[O-])C(=O)OCC`, the TGI with OVCAR-8 ovarian is > 100 µM; in the assay with HCC-2998 colon, 71.5 µM; in the assay with KM12 colon, > 100 µM; with HT29 colon, > 100 µM; in the assay with ACHN renal, > 100 µM; in the assay on UACC-257 melanoma, > 100 µM. Also, the TGI with MDA-N and in the assay with TK-10 renal was > 100 µM throughout.

With `COc1cccc2c1OC(c1cccc3ccccc13)C([N+](=O)[O-])=C2` (stereo not given), the TGI in the assay on OVCAR-8 ovarian was 20.9 µM; in the assay on KM12 colon it was 3.05 µM; in the assay with HT29 colon, 4.5 µM; with CAKI-1 renal, 5.02 µM; in the assay on ACHN renal, 3.02 µM; in the assay with UACC-257 melanoma it was 4.42 µM. Also, the TGI in the assay on MDA-N is 10.3 µM; in the assay on TK-10 renal it was 5.77 µM.

As to `O=C(OCC(Cl)(Cl)Cl)N1CC[C@H](C2CCCCC2)C1`, the TGI is 34.3 µM in the assay on HCC-2998 colon; 31.7 µM in the assay on KM12 colon; 88.9 µM in the assay on CAKI-1 renal; 36.7 µM with ACHN renal; 38.7 µM with UACC-257 melanoma; > 100 µM in the assay on MDA-N. Also, the TGI with TK-10 renal was 37.9 µM.

As for `COc1ccc(N2C(=O)C3c4[nH]c5cc(C)ccc5c4C4CCC(C(C)(C)C)CC4C3C2=O)cc1` (stereo not given), the TGI with OVCAR-8 ovarian, in the assay with HCC-2998 colon, in the assay with KM12 colon, with HT29 colon, in the assay on CAKI-1 renal and with ACHN renal was > 10 µM each time. In addition, the TGI in the assay on MDA-N and in the assay with TK-10 renal was > 10 µM in each case.

Take `Cc1ccsc1/C=N/Nc1cnccn1`: the TGI in the assay with OVCAR-8 ovarian, in the assay with HCC-2998 colon, in the assay on KM12 colon, in the assay with HT29 colon, in the assay on CAKI-1 renal and in the assay on ACHN renal was > 100 µM each time. Besides, the TGI in the assay with UACC-257 melanoma and in the assay with TK-10 renal was > 100 µM each time.

Turning to `CCN(CC)c1ccc(/C=C/c2ccnc3ccccc23)cc1`, the TGI in the assay with HCC-2998 colon, with KM12 colon, in the assay on HT29 colon, with CAKI-1 renal, with ACHN renal and with UACC-257 melanoma was > 100 µM each time. Moreover, the TGI with MDA-N and in the assay on TK-10 renal was > 100 µM in each case.

On to `O=C(CC(=O)Nc1ccccc1)NNC(Sc1ccccc1)c1cc(N=Nc2ccc(Br)cc2)ccc1O` (stereo not given), for which the TGI in the assay on HCC-2998 colon, in the assay with KM12 colon, in the assay on HT29 colon, with CAKI-1 renal, in the assay with ACHN renal and in the assay with UACC-257 melanoma was > 10 µM each time. Further, the TGI in the assay with MDA-N and in the assay with TK-10 renal was > 10 µM each time.
